Data: ChEMBL document CHEMBL1151275, “An anthraquinone with potent quinone reductase-inducing activity and other constituents of the fruits of Morinda citrifolia (noni)” (J Nat Prod, 2005)

Tests used:
[1] = Cytotoxicity against mouse Hepa-1c1c7 cells after 48 hrs by crystal violet staining; type: cell-based; settings: Hepa-1c1c7, 48 h
[2] = Chemoprevention index, ratio of IC50 for mouse Hepa-1c1c7 cells to drug level required to double specific NADPH:quinone reductase activity in mouse Hepa-1c1c7 cells; type: functional

Row | SMILES | IC50 [1] [µM] | Ratio [2]
1 | COc1c(O)cc2c(c1O)C(=O)c1ccc(O)cc1C2=O | > 69.9 | >7770
2 | COc1ccc(O)c2c1C(=O)c1ccc(CO)c(O)c1C2=O | > 66.6 | >39.9
3 | C[S@+]([O-])CCCCN=C=S [L-SULFORAPHANE] | 9.77 | 28.7
